# Results reported in patent US11246877B2, “Nanoparticles for chemotherapy, targeted therapy, photodynamic therapy, immunotherapy, and any combination thereof” (The University of Chicago, priority 2016, dated 2022).
# Read-outs that look alike come from different tables or passages of the source.
# Columns and labels:
# CT26 cells [1] = assay: HMGB-1 release by ELISA; type: cell-based, murine; details: CT26, oxaliplatin 10 μM and/or DHA 20 μM, 48 h
# Procedure: The release of high mobility group box-1 (HMGB-1) protein after ICD was evaluated by ELISA. CT26 cells were seeded at 1×10^6 cells per well in 6-well plates and further cultured for 24 h. The culture media were replaced by 2 mL of fresh culture media containing 10% FBS. Oxaliplatin, DHA, chol-DHA, oxaliplatin+DHA, NCP-3, Zn/DHA, NCP-3/DHA, and NCP-3/OA-DHA were added to the cells, respectively, at equivalent oxaliplatin and/or DHA dose of 10 μM and 20 μM, respectively. Cells incubated with PBS served as control. Following incubation of 48 h, the supernatant was collected and analyzed by an ELISA kit (Chondrex, Inc., Redmond, Wash., United States of America) by microplate reader.
# CT26 cells [2] = assay: In vitro cytotoxicity of NCP-2/DHA; type: cell-based, murine
# Procedure: (§1) The cytotoxicity of NCP-2/DHA was evaluated against two colon cancer cell lines CT26 and MC38. […] The combination index (CI50) for the two drugs was lower than 1 in some drug effect levels, indicating the syngestic effect between two drugs.
# MC38 cells [3] = assay: In vitro cytotoxicity of NCP-2/DHA; type: cell-based, murine
# Procedure: as §1
# CT26 cells [4] = assay: Immunogenic cell death: cell surface CRT by flow cytometry; type: cell-based, murine; details: CT26, oxaliplatin 10 μM and/or DHA 20 μM, 24 h
# Procedure: In Vitro Immunogenic Cell Death The immunogenic cell death induced by NCP-3/DHA was evaluated by flow cytometry and ELISA. For flow cytometry analysis, CT26 cells were seeded at 1×10^6 cells per well in 6-well plates and further cultured for 24 h. The culture media were replaced by 2 mL of fresh culture media containing 10% FBS. Oxaliplatin, DHA, chol-DHA, oxaliplatin+DHA, NCP-3, Zn/DHA and NCP-3/DHA were added to the cells, respectively, at equivalent oxaliplatin and/or DHA dose of 10 μM and 20 μM, respectively. Cells incubated with PBS served as control. Following incubation of 24 h, the cells were collected, incubated with AlexaFluor 488-CRT antibody for 2 h, and stained with PI. The samples were analyzed by flow cytometer (LSRII Orange, BD, Franklin Lakes, N.J., United States of America) to identify cell surface CRT. The fluorescence intensity of stained cells was gated on PI-negative cells.
# CT26 cells [5] = assay: In vitro cytotoxicity of NCP-3/DHA; type: cell-based, murine
# Procedure: (§2) The cytotoxicity of NCP-3/DHA was evaluated against two colon cancer cell lines CT26 and MC38.
# MC38 cells [6] = assay: In vitro cytotoxicity of NCP-3/DHA; type: cell-based, murine
# Procedure: as §2
# CT26 cells [7] = assay: In vitro PDT evoked immunogenic cell death (surface CRT); type: cell-based, murine; details: with or without irradiation, Pt 5 μM, pyrolipid 1.6 μM
# Procedure: Calreticulin (CRT) is a distinct biomarker exposed on the surface of cells undergoing immunogenic cell death (ICD). The immunogenic cell death induced by NCP-2@pyrolipid was evaluated by immunofluorescence and flow cytometry. For immunofluorescence analysis, CT26 cells were seeded at 5×10^5 cells per well in 6-well plates and further cultured for 24 h. The culture media were replaced by 2 mL of fresh culture media containing 10% FBS. Oxaliplatin, NCP-2, NCP-2@pyrolipid, and porphysome were added to the cells, respectively, at an equivalent Pt dose of 5 μM and pyrolipid dose of 1.6 μM. Cells incubated with PBS served as control. After 24-h incubation, the cells were irradiated with LED light (670 nm) at 100 mW/cm^2 for 15 min (equal to 90 J/cm^2). Following further incubation of 4 h, the cells were washed with PBS three times, fixed with 4% paraformaldehyde, incubated with AlexaFluor 488-CRT antibody for 2 h, stained with DAPI, and observed under CLSM using 405 nm and 488 nm lasers for visualizing nuclei and CRT expression on the cell membrane, respectively. […] The samples were analyzed by flow cytometer (LSRII Orange, BD, Franklin Lakes, N.J., United States of America) to identify cell surface CRT. The fluorescence intensity of stained cells was gated on PI-negative cells.
# CT26 cells [8] = assay: Apoptosis/necrosis by Annexin V flow cytometry; type: cell-based, murine; details: CT26, 24 h, oxaliplatin concentration 10 μM
# Procedure: CT26 cells seeded in 24-well plates at 1×10^5 cells/well were first incubated with NCP-3/DHA or appropriate controls for 24 h at an oxaliplatin concentration of 10 μM. The floating and adherent cells were collected and stained with Alexa Fluor 488 AnnexinV/dead cell apoptosis kit (Invitrogen, USA) according to manufacturer's instructions. The apoptosis and necrosis were examined by a flow cytometry (LSRII Blue, BD, Franklin Lakes, N.J., United States of America).
# CT26 cells [9] = assay: In vitro cytotoxicity of NCP-2/MTX; type: cell-based, murine; details: CT26, drug ratio 2:1; read-out: Oxaliplatin IC50
# Procedure: (§3) The cytotoxicity of NCP-2/MTX was evaluated against two syngeneic cancer cell lines:colorectal adenocarcinoma CT26 and colorectal carcinoma MC38. By combining two chemotherapeutic agents with vastly different solubility requirements, NCP-2/MTX elicited substantial anticancer efficacy owing to synergy between the drugs. […] The combination index (CI50) for the two drugs was much more favorable for the 2:1 compared to 1:1 molar ratio, with equal Pt doses.
# MC38 cells [10] = assay: In vitro cytotoxicity of NCP-2/MTX; type: cell-based, murine; details: MC38, drug ratio 1:1; read-out: Oxaliplatin IC50
# Procedure: as §3
# CT26 cells [11] = assay: In vitro cytotoxicity of NCP-2/PTX, MTS; type: cell-based, murine; details: read-out: Oxaliplatin IC50
# Procedure: (§4) The cytotoxicity of NCP-2/PTX was evaluated against two colorectal cancer cells including murine colorectal adenocarcinoma CT26 and murine colorectal carcinoma MC38. By combining two chemotherapeutic agents with vastly different solubility requirements, NCP-2/PTX elicited substantial anticancer efficacy owing to synergy between the drugs.
# (§5) The IC50 of oxaliplatin was substantially lower than that of paclitaxel by MTS assay, likely due to the hydrophobicity of paclitaxel. Paclitaxel was prepared in a stock solution of 3:1 ethanol:water ratio at 1 mg/ml before subsequent dilution to prepare free drug doses. The combination index (CI50) for the two drugs was much more favorable for the 1:1 compared to 2:1 molar ratio, with equal oxaliplatin doses.
# MC38 cells [12] = assay: In vitro cytotoxicity of NCP-2/PTX, MTS; type: cell-based, murine; details: MC38, drug ratio 1:1; read-out: Oxaliplatin IC50
# Procedure: as §4, §5
# HT29 cells = assay: In vitro PDT cytotoxicity; type: cell-based, human; details: read-out: Oxaliplatin IC50
# Procedure: (§6) The cytotoxicity of NCP-2@pyrolipid was evaluated against two colorectal cancer cells including murine colorectal adenocarcinoma CT26 and human colorectal adenocarcinoma HT29 cells. By combining chemotherapy of oxaliplatin and PDT modalities into one single nanoparticle, NCP-2@pyrolipid induces apoptosis/necrosis as well as elicit immunogenic cell death upon LED light irradiation. […] However, upon irradiation at 54 J/cm^2 light irradiation (670 nm), the oxaliplatin IC50 of NCP-2@pyrolipid was decreased by ˜4-fold and ˜5-fold in CT26 and HT29 cells, respectively.
# CT26 cells [13] = assay: In vitro PDT cytotoxicity; type: cell-based, murine; details: read-out: Oxaliplatin IC50
# Procedure: as §6
# H82 cells [14] = assay: In vitro cytotoxicity against small cell lung cancer cells, MTS, 96 h; type: cell-based; details: Homo sapiens, NCI-H82, etoposide concentration
# Procedure: H82 cells seeded on 96-well plates at a density of 2000 cells/well were treated with Zn/ET and free etoposide at various etoposide concentrations for 96 h. The cell viability was then detected by MTS assay (Promega, Madison, Wis., United States of America) and the IC50 values were calculated accordingly. […] ET is likely released from Zn/ET via intracellular reduction by endogenous thiol groups as shown below in Scheme 9.
# H82 cells [15] = assay: In vitro cytotoxicity of NCP-1/ET/siRNA in SCLC, MTS, 72 h; type: cell-based
# Procedure: (§7) Small cell lung cancer (SCLC) cell lines H82 and H69 cells were seeded into 96-well plate at 2000 cells/well for 24 h. Afterwards, cells were treated by cisplatin, ET, cisplatin+ET, NCP-1, NCP-1/ET, and NCP-1/ET/siRNAs at various concentrations and incubated for another 72 h. The cell viability was then determined via MTS assay by microplate reader.
# H69 cells = assay: as above; type: cell-based
# Procedure: as §7
# A2780/CDDP cells [16] = assay: In vitro cytotoxicity of cisplatin, OTS167 and NCP-1/OTS167; type: cell-based
# Procedure: The cytotoxicity of NCP-1/OTS167 with different molar ratio was then evaluated.
# H460 cells = assay: In vitro cytotoxicity against non-small cell lung cancer cells, MTS, 72 h; type: cell-based; details: Homo sapiens, NCI-H460
# Procedure: H460 and A549 cells seeded on 96-well plates at a density of 2000 cells/well were treated with Zn/PTX and free PTX at various […] concentrations for 72 h. The cell viability was then detected by MTS assay (Promega, USA) and the IC50 values were calculated accordingly.
# A2780/CDDP cells [17] = assay: In vitro cytotoxicity in ovarian cancer cells, MTS, 72 h; type: cell-based
# Procedure: (§8) A2780, A2780/CDDP, and SKOV-3 cells were seeded into 96-well plate at 2000 cells/well for 24 h. Afterwards cells were treated with free DHA or Zn/DHA at various concentrations and incubated for another 72 h. The cell viability was then determined via MTS assay by microplate reader.
# (§9) A2780, A2780/CDDP, and SKOV-3 cells were seeded into 96-well plate at 2000 cells/well for 24 h. Afterwards cells were treated with different formulations at various concentrations and incubated for another 72 h. The cell viability was then determined via MTS assay by microplate reader.
# SKOV-3 cells = assay: as above; type: cell-based; details: Homo sapiens, SK-OV-3; SKOV-3, 72 h, DHA concentration; read-out: IC50 of DHA (numbers in parenthesis)
# Procedure: as §8, §9
# A2780 cells = assay: as above; type: cell-based; details: Homo sapiens; A2780, 72 h, DHA concentration; read-out: IC50 of DHA (numbers in parenthesis)
# Procedure: as §8, §9
# [18] = CT26, read-out: Oxaliplatin IC50
# [19] = MC38, read-out: Oxaliplatin IC50
# [20] = Mus musculus, CT26, DHA concentration, read-out: DHA IC50
# [21] = Mus musculus, MC-38, MC38, DHA concentration, read-out: DHA IC50
smiles,measurement,setting,value
O=C1[O][Pt]2([NH][C@@H]3CCCC[C@H]3[NH]2)[O]C1=O [oxaliplatin],HMGB-1 release,CT26 cells [1],HMGB-1 release
same,IC50,CT26 cells [2]; [18],5.77 ± 1.06 µM
same,IC50,MC38 cells [3]; [19],7.87 ± 1.32 µM
same,cell surface CRT expression,CT26 cells [4],caused cell surface CRT expression
same,IC50,CT26 cells [5]; [18],10.3 ± 1.62 µM
same,IC50,MC38 cells [6]; [19],12.8 ± 1.32 µM
same,surface CRT expression,CT26 cells [7],significant amounts of CRT
same,apoptosis and necrosis,CT26 cells [8],caused necrosis
same,IC50,CT26 cells [9],7.05 ± 0.59 µM
same,IC50,MC38 cells [10],3.35 ± 0.13 µM
same,IC50,"CT26 cells [11]; CT26 (cell-line cell empty), drug ratio 2:1",10.2 ± 0.98 µM
same,IC50,"CT26 cells [11]; CT26, drug ratio 1:1",7.05 ± 0.95 µM
same,IC50,MC38 cells [12],3.35 ± 0.13 µM
same,IC50,"HT29 cells; HT29, irradiation No",1.44 ± 0.32 µM
same,IC50,"HT29 cells; HT29, irradiation Yes (670 nm, 54 J/cm^2)",1.87 ± 0.31 µM
same,IC50,"CT26 cells [13]; CT26, irradiation No",5.05 ± 0.95 µM
same,IC50,"CT26 cells [13]; CT26, irradiation Yes (670 nm, 54 J/cm^2)",4.97 ± 0.49 µM
COc1cc([C@@H]2c3cc4c(cc3[C@@H](O[C@@H]3O[C@@H]5CO[C@@H](C)O[C@H]5[C@H](O)[C@H]3O)[C@H]3COC(=O)[C@H]23)OCO4)cc(OC)c1O [Etoposide],IC50,H82 cells [14],8.83 ± 0.13 µM
same,IC50,"H82 cells [15]; Homo sapiens, NCI-H82",30.9 ± 0.37 µM
same,IC50,"H69 cells; Homo sapiens, NCI-H69",42.2 ± 0.61 µM
CC(=O)c1cnc2ccc(-c3cc(Cl)c(O)c(Cl)c3)nc2c1N[C@H]1CC[C@H](CN(C)C)CC1 [OTS167],IC50,"A2780/CDDP cells [16]; OTS167 concentration, read-out: IC50, OTS167",0.0121 ± 0.00046 µM
"CC(=O)O[C@H]1C(=O)[C@@]2(C)[C@H]([C@H](OC(=O)c3ccccc3)[C@]3(O)C[C@H](OC(=O)[C@H](O)[C@@H](NC(=O)c4ccccc4)c4ccccc4)C(C)=C1C3(C)C)[C@]1(OC(C)=O)CO[C@@H]1C[C@@H]2O [PTX, Paclitaxel]",IC50,H460 cells,10.8 ± 0.44 µM
"N.N.[Cl][Pt][Cl] [Cisplatin, cisplatin]",IC50,"A2780/CDDP cells [17]; cisplatin concentration, read-out: IC50 of cisplatin",19.8 ± 4.01 µM
same,IC50,H82 cells [15],7.93 ± 0.7 µM
same,IC50,H69 cells,13.2 ± 0.35 µM
same,IC50,"A2780/CDDP cells [16]; cisplatin concentration, read-out: IC50, Cisplatin",12.8 ± 0.19 µM
"C[C@H]1[C@@H](O)O[C@@H]2O[C@@]3(C)CC[C@H]4[C@H](C)CC[C@@H]1[C@@]24OO3 [DHA, dihydroartemisinin]",IC50,SKOV-3 cells,9.9 ± 0.34 µM
same,IC50,"A2780/CDDP cells [17]; DHA concentration, read-out: IC50 of DHA (numbers in parenthesis)",2.61 ± 0.18 µM
same,IC50,A2780 cells,0.3 ± 0.11 µM
same,IC50,CT26 cells [2]; [20],7.77 ± 2.68 µM
same,IC50,MC38 cells [3]; [21],4.83 ± 1.12 µM
same,IC50,CT26 cells [5]; [20],6.25 ± 1.53 µM
same,IC50,MC38 cells [6]; [21],9.68 ± 1.12 µM
